Drawing on article PMC10377775, “Identification of a Novel ERK5 (MAPK7) Inhibitor, MHJ-627, and Verification of Its Potent Anticancer Efficacy in Cervical Cancer HeLa Cells” (Current Issues in Molecular Biology, 2023), this text covers inhibition and IC50 for two compounds.

Assay [1] deals with T1, ERK5 (MAPK7) (Homo sapiens, UniProt Q13164). Description: FRET-based Z'-LYTE in vitro kinase assay, single concentration ([…]), positive control. It is filed as biochemical.
The target in assay [2] is T1, ERK5 (MAPK7). Put plainly: FRET-based Z'-LYTE in vitro kinase assay, […] ng ERK5 (ab126913), […] ATP. It is filed as biochemical.

T1 sequence (Q13164 2-816): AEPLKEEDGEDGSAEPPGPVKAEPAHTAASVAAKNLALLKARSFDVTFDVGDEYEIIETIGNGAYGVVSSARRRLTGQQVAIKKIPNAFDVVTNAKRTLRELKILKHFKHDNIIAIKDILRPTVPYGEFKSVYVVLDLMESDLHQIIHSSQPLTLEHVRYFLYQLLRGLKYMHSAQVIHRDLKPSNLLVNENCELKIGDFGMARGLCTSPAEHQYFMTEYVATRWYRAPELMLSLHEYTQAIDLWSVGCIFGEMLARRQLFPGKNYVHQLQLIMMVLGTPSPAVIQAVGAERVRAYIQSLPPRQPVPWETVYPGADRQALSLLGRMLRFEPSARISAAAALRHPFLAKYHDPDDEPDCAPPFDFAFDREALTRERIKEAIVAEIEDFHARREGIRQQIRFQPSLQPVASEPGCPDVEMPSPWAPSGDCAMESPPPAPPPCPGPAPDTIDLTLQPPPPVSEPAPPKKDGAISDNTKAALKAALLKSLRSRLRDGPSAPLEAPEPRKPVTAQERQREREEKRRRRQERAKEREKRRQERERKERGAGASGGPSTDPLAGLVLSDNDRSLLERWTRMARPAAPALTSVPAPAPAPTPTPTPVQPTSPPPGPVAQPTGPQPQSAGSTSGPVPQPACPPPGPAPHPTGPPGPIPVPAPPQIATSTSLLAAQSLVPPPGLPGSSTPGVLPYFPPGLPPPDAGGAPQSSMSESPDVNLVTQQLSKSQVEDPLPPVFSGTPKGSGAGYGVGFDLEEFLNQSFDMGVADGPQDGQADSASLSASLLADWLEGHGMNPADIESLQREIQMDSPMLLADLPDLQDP

The compound `CCOc1cc(N2CCC(O)CC2)ccc1Nc1ncc2c(n1)N(C)c1ccccc1C(=O)N2C` [XMD8-92] yielded an inhibition at 5 µM in assay [1] of 56%.
`CC(C)CCOc1cc(C(=O)C[n+]2cn(CCC(C)C)c3ccccc32)c(OCCC(C)C)c2ccccc12` [MHJ-627, 3-(2-(1,4-bis(isopentyloxy)naphthalen-2-yl)-2-oxoethyl)-1-isopentyl-1H-benzo[d]imidazol-3-ium bromide] gave an IC50 in assay [2] of 910 nM.
